{
  "source": "patent US6040338A",
  "about": "“N,n-bis(sulfonyl)hydrazines useful as antineoplastic agents” (Yale University, priority 1997, dated 2000)",
  "key": {"GSH/GST": {"system": "GSH/GST", "experiment": "Relative rate of activation by GSH/GST in vitro", "type": "in vitro ADME", "details": "GSH 1 mM, GST 400 μg/ml; for Relative Activation Rate by GSH/GST: 1 mM compound, compound 6 = 100", "procedure": "When R^3 is a methyl group, the rate of activation by GSH/GST is highly dependent upon the nature of the 2-alkoxy- or 2-aryloxycarbonyl moiety at the R^4 position.\nThe rate of activation of 2-(2-bromoethoxy)carbonyl-1,2-bis(methylsulfonyl)-1-methylhydrazine (compound 8) was elevated approximately 18-fold in vitro by the presence of GSH (1 mM) and GST (400 μg/ml), compared to buffer alone."}, "proteinase K or serum": {"system": "proteinase K or serum", "experiment": "Effect of proteinase K or serum on rate of decomposition/activation", "type": "in vitro ADME"}, "[1]": {"experiment": "Initial rate of hydrolysis in aqueous media at pH 7.4 and 37° C.", "type": "physicochemical", "procedure": "For example, the initial rates of hydrolysis of 2-acetyl-1,2-bis(methylsulfonyl)-1-methylhydrazine (an acyl derivative shown in structural formula 5) and 1,2-bis(methylsulfonyl)-2-methoxycarbonyl-1-methylhydrazine (a carbamate compound shown in structural formula 6) were 0.3% and 0.007% per minute, respectively, at pH 7.4 and 37° C. [drawing 12]"}, "[2]": {"system": "EMT6 mammary carcinoma cells", "experiment": "Colony-forming assay, EMT6 cells under hypoxic or aerobic conditions", "type": "cell-based, mouse", "procedure": "(§1) The ability of compounds 10h, 11, 12, and 14 to exert preferential toxicity to hypoxic cells was evaluated using the EMT6 mammary carcinoma by methodology described previously (Rockwell, S., Keyes, S. R., and Sartorelli, A. C. Rad. Res. 116: 100-113 (1988); Keyes, S. R., Rockwell, S., and Sartorelli, A. C. Cancer Res. 45: 213-216 (1985)). Briefly, exponentially growing monolayers of EMT6 (or CHO-K1/dhfr clone) were exposed to a continuously flowing 95% N2 /5% CO2 humidified atmosphere for 2 h to produce radiobiologic hypoxia. Parallel flasks were maintained similarly in humidified 95% air/5% CO2. Without breaking the hypoxia, cells were exposed to various concentrations of the test agent for 1 hr. Cell survival was then measured by colony formation.\nThe cytotoxicity of compound 10h was evaluated against EMT6 mouse mammary carcinoma cells in vitro under aerobic and hypoxic conditions using the colony-forming assay described above. FIG. 1 depicts the survival of EMT6 cells exposed to various concentrations of compound 10h for 1 hr under hypoxic or aerobic conditions in vitro. Points are the geometric means of two or more independent determinations of surviving fractions. The SEMs are shown where n≥3 and where the error is larger than the point size. Open triangles represent aerobic data points and filled triangles represent hypoxic data points.\nCompound 12 was evaluated for its ability to exert preferential toxicity to hypoxic EMT6 cells relative to their aerobic counterparts. […] Points are geometric means of two or more independent determinations of surviving fractions. The SEMs are shown where n≥3 and where the error is larger than the point size. Open triangles are aerobic data points, and filled triangles are hypoxic data points. […] Points are means of duplicate determinations. Open triangles are parental-aerobic; filled triangles are parental-hypoxic; open circles are NADPH:cytochrome P450 reductase-transfected-aerobic; filled circles are NADPH:cytochrome P450 reductase-transfected-hypoxic."}, "tumor": {"system": "tumor", "details": "in vivo; cited from earlier work"}, "host animals": {"system": "host animals", "details": "in vivo; cited from earlier work"}, "[3]": {"system": "CHO-K1/dhfr^- cells transfected with NADPH:cytochrome P450 reductase cDNA", "experiment": "Colony-forming assay, CHO-K1/dhfr^- cells overexpressing NADPH:cytochrome P450 reductase", "type": "cell-based, Chinese hamster", "details": "1 hr, hypoxic versus aerobic (FIG. 6)", "procedure": "as §1, with “formation. […]” for “formation.”\n(§2) The cytotoxicity of compound loh was evaluated in aerobic and hypoxic Chinese hamster ovary (CHO-K1/dhfr^-) cells transfected with and overexpressing cDNAs for NADPH:cytochrome P450 reductase (27-fold more than parental cells, FIG. 3) or DT-diaphorase (133-fold more than parental cells, FIG. 4), two reductases with the potential to activate compound 10h. […]\n(§3) Compound 12 was evaluated for its ability to exert preferential toxicity to hypoxic EMT6 cells relative to their aerobic counterparts. […]"}, "CHO-K1/dhfr^- cells": {"system": "CHO-K1/dhfr^- cells", "experiment": "Colony-forming assay, aerobic and hypoxic CHO-K1/dhfr^- cells", "type": "cell-based, Chinese hamster", "details": "1 hr (FIG. 6)", "procedure": "as §1\nCHO-K1/dhfr cells were used to examine the role of the reductive enzymes NADPH:cytochrome P450 reductase and DT-diaphorase in the activation of compounds 10h and 12 in situ. Clones of CHO-K1/dhfr^- cells transfected with and overexpressing cDNAs for each of these enzymes were used for this purpose (Belcourt, M. F., Hodnick, W. F., Rockwell, S., and Sartorelli, A. C. Proc. Natl. Acad. Sci. USA 93: 456-460 (1996); Belcourt, M. F., Hodnick, W. F., Rockwell, S., and Sartorelli, A. C. Biochem. Pharmacol. 51: 1669-1678 (1996)).\nas §2, with “10h. In FIGS. 3 and 4, points are means of duplicate determinations.” for “10h.”\nas §3"}, "L1210 leukemia": {"system": "L1210 leukemia", "details": "single intraperitoneal dose; cited from earlier work"}},
  "data": [
    {"smiles": "COC(=O)N(N(C)S(C)(=O)=O)S(C)(=O)=O", "note": "[Compound 6, 1,2-Bis(methylsulfonyl)-2-(methoxycarbonyl)-1-methylhydrazine]", "values": [
      {"measurement": "Relative Activation Rate by GSH/GST", "setting": "GSH/GST", "value": 100},
      {"measurement": "increase of rate of decomposition by proteinase K or serum", "setting": "proteinase K or serum; levels that enhanced activation of compound 5 almost 10-fold", "value": "not appreciably increased"},
      {"measurement": "initial rate of hydrolysis", "setting": "[1]", "value": 0.007, "unit": "% per minute"}
    ]},
    {"smiles": "CC(=O)N(N(C)S(C)(=O)=O)S(C)(=O)=O", "note": "[Compound 5, 2-acetyl-1,2-bis(methylsulfonyl)-1-methylhydrazine, reference compound]", "values": [
      {"measurement": "enhancement of rate of activation by proteinase K or serum", "setting": "proteinase K or serum; levels of proteinase K or serum", "value": "~10", "unit": "fold"},
      {"measurement": "initial rate of hydrolysis", "setting": "[1]", "value": 0.3, "unit": "% per minute"}
    ]},
    {"smiles": "CCOC(=O)N(N(C)S(C)(=O)=O)S(C)(=O)=O", "note": "[Compound 7, 1,2-Bis(methylsulfonyl)-2-(ethoxycarbonyl)-1-methylhydrazine]", "values": [
      {"measurement": "Relative Activation Rate by GSH/GST", "setting": "GSH/GST", "value": 30}
    ]},
    {"smiles": "CS(=O)(=O)N(CCCl)N(C(=O)OCc1ccccc1)S(C)(=O)=O", "note": "[Compound 11, 2-Benzyloxycarbonyl-1,2-bis(methylsulfonyl)-1-(2-chloroethyl)hydrazine]", "values": [
      {"measurement": "toxicity to EMT6 cells, aerobic versus hypoxic (in words)", "setting": "[2]; 1 hr, hypoxic or aerobic (FIG. 2)", "value": "essentially equitoxic to EMT6 cells under both conditions of oxygenation"}
    ]},
    {"smiles": "CC(=O)N(N(CCCl)S(C)(=O)=O)S(C)(=O)=O", "note": "[Compound 4]", "values": [
      {"measurement": "antitumor/antineoplastic activity (in words)", "setting": "tumor", "value": "broad-spectrum antitumor activity"},
      {"measurement": "host toxicity (in words)", "setting": "host animals", "value": "considerably less toxic to host animals than compound 2"}
    ]},
    {"smiles": "CN(N(C(=O)OCCBr)S(C)(=O)=O)S(C)(=O)=O", "note": "[Compound 8, 1,2-Bis(methylsulfonyl)-2-(2-bromoethoxycarbonyl)-1-methylhydrazine]", "values": [
      {"measurement": "Relative Activation Rate by GSH/GST", "setting": "GSH/GST", "value": 300},
      {"measurement": "elevation of rate of activation by GSH and GST compared to buffer alone", "setting": "GSH/GST; in vitro", "value": "approximately 18 fold"}
    ]},
    {"smiles": "COc1cc(COC(=O)N(N(CCCl)S(C)(=O)=O)S(C)(=O)=O)c([N+](=O)[O-])cc1OC", "note": "[Compound 12, 1,2-Bis(methylsulfonyl)-1-(2-chloroethyl)-2-[(4,5-dimethoxy-2-nitrobenzyloxy)carbonyl]hydrazine]", "values": [
      {"measurement": "cytotoxicity to hypoxic versus aerobic cells overexpressing NADPH-cytochrome P450 reductase", "setting": "[3]", "value": "> 3000", "unit": "times"},
      {"measurement": "cytotoxicity to aerobic and hypoxic CHO-K1/dhfr^- cells (in words)", "setting": "CHO-K1/dhfr^- cells", "value": "results similar to those described for compound 10h"},
      {"measurement": "toxicity to aerobic EMT6 cells (in words)", "setting": "[2]; 50 μM, 1 hr exposure, aerobic (FIG. 5)", "value": "relatively minor toxicity"},
      {"measurement": "log reduction at 50 µM", "setting": "[2]; Mus musculus, EMT6, 50 μM, 1 hr exposure, hypoxic (FIG. 5), read-out: kill of hypoxic EMT6 cells", "value": "> 3"}
    ]},
    {"smiles": "CS(=O)(=O)N(CCCl)N(C(=O)NCCCl)S(C)(=O)=O", "note": "[Compound 3]", "values": [
      {"measurement": "antitumor/antineoplastic activity (in words)", "setting": "tumor", "value": "broad-spectrum antitumor activity"},
      {"measurement": "host toxicity (in words)", "setting": "host animals", "value": "considerably less toxic to host animals than compound 2"}
    ]},
    {"smiles": "CC(OC(=O)N(N(CCCl)S(C)(=O)=O)S(C)(=O)=O)c1ccc([N+](=O)[O-])cc1", "note": "(stereo not drawn) [Compound 14, 1,2-Bis(methylsulfonyl)-1-(2-chloroethyl)-2-[[1-(4-nitrophenyl)ethoxy]carbonyl]hydrazine]", "values": [
      {"measurement": "toxicity to aerobic EMT6 cells compared with compound 10h (in words)", "setting": "[2]; 1 hr, aerobic (FIG. 7 versus FIG. 1)", "value": "less toxic to aerobic EMT6 cells than compound 10h"},
      {"measurement": "toxicity to hypoxic EMT6 cells compared with compound 10h (in words)", "setting": "[2]; 1 hr, hypoxic (FIG. 7 versus FIG. 1)", "value": "essentially the same as that of compound 10h"}
    ]},
    {"smiles": "COc1ccc(OC(=O)N(N(C)S(C)(=O)=O)S(C)(=O)=O)cc1", "note": "[Compound 9, 1,2-Bis(methylsulfonyl)-2-[(4-methoxyphenoxy)carbonyl]-1-methylhydrazine]", "values": [
      {"measurement": "Relative Activation Rate by GSH/GST", "setting": "GSH/GST", "value": "1,700"}
    ]},
    {"smiles": "CS(=O)(=O)NN(CCCl)S(C)(=O)=O", "note": "[Compound 2, 1,2-bis(methylsulfonyl)-1-(2-chloroethyl)hydrazine]", "values": [
      {"measurement": "active dosage range (in words)", "setting": "tumor", "value": "active only over a narrow dosage range"},
      {"measurement": "antitumor/antineoplastic activity (in words)", "setting": "tumor", "value": "most active compound of this class"},
      {"measurement": "host toxicity (in words)", "setting": "host animals", "value": "considerable host toxicity"},
      {"measurement": "cures of mice bearing the L1210 leukemia", "setting": "L1210 leukemia", "value": 40, "unit": "%"}
    ]}
  ]
}
